In PubChem BioAssay (NCI):
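Exposure lasted 48 hours, with cells grown in 96-well plates and compounds tested at five concentrations. TGI: concentration producing complete growth inhibition.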

Legend:
Test in all cases: NCI-60 cell line screen, 48 h
A549 NSCLC = test system: A549 NSCLC
ACHN renal = test system: ACHN renal
CAKI-1 renal = test system: CAKI-1 renal
HCC-2998 colon = test system: HCC-2998 colon
HCT-116 colon = test system: HCT-116 colon
KM12 colon = test system: KM12 colon
MOLT-4 leukemia = test system: MOLT-4 leukemia
NCI-H23 lung = test system: NCI-H23 lung
OVCAR-5 ovarian = test system: OVCAR-5 ovarian
SF-295 CNS = test system: SF-295 CNS
SF-539 CNS = test system: SF-539 CNS
SK-MEL-28 melanoma = test system: SK-MEL-28 melanoma
SN12C renal = test system: SN12C renal
SR leukemia = test system: SR leukemia
TK-10 renal = test system: TK-10 renal
UACC-257 melanoma = test system: UACC-257 melanoma
RPMI-8226 leukemia = test system: RPMI-8226 leukemia
SNB-75 CNS = test system: SNB-75 CNS
MDA-MB-435 = test system: MDA-MB-435

Question: How did the TGI (A549 NSCLC) turn out when CNC(=S)NNC(=O)c1c(C)nc2sccn12 was run?
Answer: > 100 µM

Question: What about the TGI (ACHN renal) of the same compound?
Answer: > 100 µM

Question: What about the TGI (CAKI-1 renal) of the same compound?
Answer: > 100 µM

Question: What about the TGI (HCC-2998 colon) of the same compound?
Answer: > 100 µM

Question: What about the TGI (HCT-116 colon) of the same compound?
Answer: > 100 µM

Question: And the TGI (KM12 colon)?
Answer: > 100 µM

Question: What about the TGI (MOLT-4 leukemia) of the same compound?
Answer: > 100 µM

Question: And the TGI (NCI-H23 lung)?
Answer: > 100 µM

Question: And the TGI (OVCAR-5 ovarian)?
Answer: > 100 µM

Question: And the TGI (SF-295 CNS)?
Answer: > 100 µM

Question: What about the TGI (SF-539 CNS) of the same compound?
Answer: > 100 µM

Question: And the TGI (SK-MEL-28 melanoma)?
Answer: > 100 µM

Question: And the TGI (SN12C renal)?
Answer: > 100 µM

Question: What about the TGI (SR leukemia) of the same compound?
Answer: > 100 µM

Question: What about the TGI (TK-10 renal) of the same compound?
Answer: > 100 µM

Question: What about the TGI (UACC-257 melanoma) of the same compound?
Answer: > 100 µM

Question: What does the source list for O=S1(=O)COc2ccccc2-c2ncncc21?
Answer: TGI (A549 NSCLC): > 100 µM; TGI (ACHN renal): > 100 µM; TGI (CAKI-1 renal): > 100 µM; TGI (HCC-2998 colon): > 100 µM; TGI (HCT-116 colon): > 100 µM; TGI (KM12 colon): > 100 µM; TGI (MOLT-4 leukemia): > 100 µM; TGI (NCI-H23 lung): > 100 µM; TGI (OVCAR-5 ovarian): > 100 µM; TGI (RPMI-8226 leukemia): > 100 µM; TGI (SF-295 CNS): > 100 µM; TGI (SF-539 CNS): > 100 µM; TGI (SK-MEL-28 melanoma): > 100 µM; TGI (SN12C renal): > 100 µM; TGI (SNB-75 CNS): > 100 µM; TGI (SR leukemia): > 100 µM; TGI (TK-10 renal): > 100 µM; TGI (UACC-257 melanoma): > 100 µM

Question: Which TGI (A549 NSCLC) does the source give for Fc1ccc(C2(CCCN3CCc4[nH]c5cc(F)ccc5c4C3)OCCO2)cc1 here?
Answer: 29 µM

Question: What about the TGI (ACHN renal) of the same compound?
Answer: 23.5 µM

Question: What about the TGI (HCC-2998 colon) of the same compound?
Answer: 4.21 µM

Question: What about the TGI (HCT-116 colon) of the same compound?
Answer: 24 µM

Question: And the TGI (KM12 colon)?
Answer: 29.8 µM

Question: And the TGI (MDA-MB-435)?
Answer: 26.5 µM

Question: And the TGI (MOLT-4 leukemia)?
Answer: 21.9 µM

Question: And the TGI (NCI-H23 lung)?
Answer: 31.7 µM

Question: What about the TGI (OVCAR-5 ovarian) of the same compound?
Answer: 20.5 µM

Question: What about the TGI (RPMI-8226 leukemia) of the same compound?
Answer: 28.1 µM

Question: And the TGI (SF-295 CNS)?
Answer: 27.4 µM

Question: What about the TGI (SF-539 CNS) of the same compound?
Answer: 25.5 µM

Question: What about the TGI (SK-MEL-28 melanoma) of the same compound?
Answer: 25.6 µM

Question: And the TGI (SN12C renal)?
Answer: 31.6 µM

Question: And the TGI (SNB-75 CNS)?
Answer: 25.1 µM

Question: And the TGI (SR leukemia)?
Answer: 22 µM

Question: What about the TGI (TK-10 renal) of the same compound?
Answer: 28.1 µM

Question: And the TGI (UACC-257 melanoma)?
Answer: 16.5 µM

Question: With O=C(O)C(F)(OC(F)(F)C(F)(F)C(F)(F)F)C(F)(F)F (configuration not stated) as the compound, how does the TGI (A549 NSCLC) read?
Answer: > 100 µM

Question: And the TGI (ACHN renal)?
Answer: > 100 µM

Question: And the TGI (CAKI-1 renal)?
Answer: > 100 µM

Question: And the TGI (HCC-2998 colon)?
Answer: > 100 µM

Question: And the TGI (HCT-116 colon)?
Answer: > 100 µM

Question: What about the TGI (KM12 colon) of the same compound?
Answer: > 100 µM

Question: What about the TGI (MDA-MB-435) of the same compound?
Answer: > 100 µM

Question: And the TGI (MOLT-4 leukemia)?
Answer: > 100 µM

Question: What about the TGI (NCI-H23 lung) of the same compound?
Answer: > 100 µM

Question: And the TGI (OVCAR-5 ovarian)?
Answer: > 100 µM

Question: What about the TGI (RPMI-8226 leukemia) of the same compound?
Answer: > 100 µM

Question: And the TGI (SF-295 CNS)?
Answer: > 100 µM

Question: And the TGI (SF-539 CNS)?
Answer: > 100 µM

Question: What about the TGI (SK-MEL-28 melanoma) of the same compound?
Answer: > 100 µM

Question: What about the TGI (SN12C renal) of the same compound?
Answer: > 100 µM

Question: And the TGI (SNB-75 CNS)?
Answer: > 100 µM

Question: What about the TGI (TK-10 renal) of the same compound?
Answer: > 100 µM

Question: And the TGI (UACC-257 melanoma)?
Answer: > 100 µM

Question: Which TGI (A549 NSCLC) does the source give for CCOC(=O)[C@H](Cc1ccccc1)NC(=O)c1nc[nH]c1[N+](=O)[O-] here?
Answer: > 100 µM

Question: And the TGI (ACHN renal)?
Answer: > 100 µM

Question: What about the TGI (CAKI-1 renal) of the same compound?
Answer: > 100 µM

Question: What about the TGI (HCC-2998 colon) of the same compound?
Answer: > 100 µM

Question: What about the TGI (HCT-116 colon) of the same compound?
Answer: > 100 µM

Question: What about the TGI (KM12 colon) of the same compound?
Answer: > 100 µM

Question: What about the TGI (MOLT-4 leukemia) of the same compound?
Answer: > 100 µM

Question: And the TGI (NCI-H23 lung)?
Answer: > 100 µM

Question: And the TGI (RPMI-8226 leukemia)?
Answer: > 100 µM

Question: And the TGI (SF-295 CNS)?
Answer: > 100 µM

Question: And the TGI (SF-539 CNS)?
Answer: > 100 µM

Question: What about the TGI (SK-MEL-28 melanoma) of the same compound?
Answer: > 100 µM

Question: What about the TGI (SN12C renal) of the same compound?
Answer: > 100 µM

Question: And the TGI (SNB-75 CNS)?
Answer: > 100 µM

Question: What about the TGI (SR leukemia) of the same compound?
Answer: > 100 µM

Question: What about the TGI (TK-10 renal) of the same compound?
Answer: > 100 µM

Question: And the TGI (UACC-257 melanoma)?
Answer: > 100 µM

Question: Which TGI (A549 NSCLC) does the source give for CSc1nc2nc(C)c(C)nc2c(=O)[nH]1 here?
Answer: > 100 µM

Question: What about the TGI (ACHN renal) of the same compound?
Answer: > 100 µM

Question: What about the TGI (CAKI-1 renal) of the same compound?
Answer: > 100 µM

Question: And the TGI (HCC-2998 colon)?
Answer: > 100 µM

Question: What about the TGI (HCT-116 colon) of the same compound?
Answer: > 100 µM

Question: And the TGI (KM12 colon)?
Answer: > 100 µM

Question: And the TGI (MOLT-4 leukemia)?
Answer: > 100 µM

Question: And the TGI (NCI-H23 lung)?
Answer: > 100 µM

Question: And the TGI (OVCAR-5 ovarian)?
Answer: > 100 µM

Question: And the TGI (RPMI-8226 leukemia)?
Answer: > 100 µM

Question: What about the TGI (SF-295 CNS) of the same compound?
Answer: > 100 µM

Question: And the TGI (SK-MEL-28 melanoma)?
Answer: > 100 µM

Question: And the TGI (SN12C renal)?
Answer: > 100 µM

Question: What about the TGI (SNB-75 CNS) of the same compound?
Answer: > 100 µM

Question: What about the TGI (SR leukemia) of the same compound?
Answer: > 100 µM

Question: What about the TGI (TK-10 renal) of the same compound?
Answer: > 100 µM

Question: And the TGI (UACC-257 melanoma)?
Answer: > 100 µM

Question: Which TGI (A549 NSCLC) does the source give for CC(C)(C)OC(=O)N1C[C@H](CC(=O)OCc2ccccc2)C[C@H]1C(=O)OCC(Cl)(Cl)Cl here?
Answer: > 50 µM

Question: And the TGI (ACHN renal)?
Answer: > 50 µM

Question: And the TGI (CAKI-1 renal)?
Answer: > 50 µM

Question: What about the TGI (HCC-2998 colon) of the same compound?
Answer: 45.3 µM

Question: And the TGI (HCT-116 colon)?
Answer: > 50 µM

Question: What about the TGI (KM12 colon) of the same compound?
Answer: > 50 µM

Question: What about the TGI (MDA-MB-435) of the same compound?
Answer: > 50 µM

Question: What about the TGI (MOLT-4 leukemia) of the same compound?
Answer: 3.36 µM

Question: And the TGI (NCI-H23 lung)?
Answer: > 50 µM

Question: What about the TGI (OVCAR-5 ovarian) of the same compound?
Answer: > 50 µM

Question: What about the TGI (SF-295 CNS) of the same compound?
Answer: > 50 µM

Question: What about the TGI (SF-539 CNS) of the same compound?
Answer: > 50 µM

Question: And the TGI (SK-MEL-28 melanoma)?
Answer: > 50 µM

Question: And the TGI (SN12C renal)?
Answer: > 50 µM

Question: What about the TGI (SNB-75 CNS) of the same compound?
Answer: > 50 µM

Question: What about the TGI (SR leukemia) of the same compound?
Answer: 15.7 µM

Question: And the TGI (TK-10 renal)?
Answer: > 50 µM

Question: And the TGI (UACC-257 melanoma)?
Answer: 31.3 µM
